Values of other authors in US8455540B2, “Gossypol and apogossypol derivatives, preparation thereof and uses thereof” (Universite du Maine (Le Mans), priority 2007, dated 2013).

Assays:
[1] = system: various types of cancers; conditions: compared with gossypol (apogossypol = deformylated gossypol)
[2] = system: proteins of the Bcl-2 family; conditions: compared with gossypol (apogossypol = deformylated gossypol)

## Cc1cc2c(C(C)C)c(O)c(O)cc2c(O)c1-c1c(C)cc2c(C(C)C)c(O)c(O)cc2c1O [apogossypol]
[1]
  activity on various types of cancers: fully retains its activity
[2]
  activity on proteins of the Bcl-2 family: fully retains its activity
